Where two headings read alike, the source gives them in different places.
Key:
Experiment in all cases: cell-based
PR = biological target: T1, PR (Homo sapiens, UniProt P06401)
T1 sequence (P06401 1-933): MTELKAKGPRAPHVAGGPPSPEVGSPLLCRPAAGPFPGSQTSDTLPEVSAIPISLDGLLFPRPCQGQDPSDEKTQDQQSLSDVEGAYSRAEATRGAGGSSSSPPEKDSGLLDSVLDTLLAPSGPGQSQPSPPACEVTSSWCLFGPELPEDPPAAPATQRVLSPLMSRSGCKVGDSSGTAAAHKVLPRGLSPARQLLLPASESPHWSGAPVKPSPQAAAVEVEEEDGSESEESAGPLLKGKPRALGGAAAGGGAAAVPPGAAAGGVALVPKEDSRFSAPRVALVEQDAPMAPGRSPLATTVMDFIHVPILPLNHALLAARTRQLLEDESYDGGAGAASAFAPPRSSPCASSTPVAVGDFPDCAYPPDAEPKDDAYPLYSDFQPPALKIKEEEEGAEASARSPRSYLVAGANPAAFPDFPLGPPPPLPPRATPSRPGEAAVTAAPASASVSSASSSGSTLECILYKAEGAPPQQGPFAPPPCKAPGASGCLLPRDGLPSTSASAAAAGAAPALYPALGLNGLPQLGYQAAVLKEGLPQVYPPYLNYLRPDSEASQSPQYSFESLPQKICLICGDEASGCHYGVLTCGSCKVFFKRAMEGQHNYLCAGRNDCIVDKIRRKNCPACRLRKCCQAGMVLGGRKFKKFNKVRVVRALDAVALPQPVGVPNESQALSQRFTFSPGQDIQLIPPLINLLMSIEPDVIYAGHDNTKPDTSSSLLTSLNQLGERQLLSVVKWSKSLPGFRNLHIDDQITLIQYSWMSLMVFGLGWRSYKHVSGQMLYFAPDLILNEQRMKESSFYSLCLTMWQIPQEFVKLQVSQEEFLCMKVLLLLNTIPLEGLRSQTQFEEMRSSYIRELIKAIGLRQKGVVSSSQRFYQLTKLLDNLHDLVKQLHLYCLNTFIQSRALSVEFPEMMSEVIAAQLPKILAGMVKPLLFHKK

human AR [1] = biological target: T2, human AR (Homo sapiens, UniProt P10275); type: cell-based; details: for AR Antagonist CV-1 Cells Efficacy: antagonist mode, DHT at its EC50, % of maximal inhibition, na = not active; for IC50: read-out: AR Antagonist CV-1 Cells Potency; for EC50: read-out: AR Agonist CV-1 Cells Potency; for AR activity profile (in words): summary of Tables 1 and 2
T2 construct: expressed in transfected cells; host or cells: CV-1 cells (African green monkey kidney fibroblasts)
T2 sequence (P10275 1-920): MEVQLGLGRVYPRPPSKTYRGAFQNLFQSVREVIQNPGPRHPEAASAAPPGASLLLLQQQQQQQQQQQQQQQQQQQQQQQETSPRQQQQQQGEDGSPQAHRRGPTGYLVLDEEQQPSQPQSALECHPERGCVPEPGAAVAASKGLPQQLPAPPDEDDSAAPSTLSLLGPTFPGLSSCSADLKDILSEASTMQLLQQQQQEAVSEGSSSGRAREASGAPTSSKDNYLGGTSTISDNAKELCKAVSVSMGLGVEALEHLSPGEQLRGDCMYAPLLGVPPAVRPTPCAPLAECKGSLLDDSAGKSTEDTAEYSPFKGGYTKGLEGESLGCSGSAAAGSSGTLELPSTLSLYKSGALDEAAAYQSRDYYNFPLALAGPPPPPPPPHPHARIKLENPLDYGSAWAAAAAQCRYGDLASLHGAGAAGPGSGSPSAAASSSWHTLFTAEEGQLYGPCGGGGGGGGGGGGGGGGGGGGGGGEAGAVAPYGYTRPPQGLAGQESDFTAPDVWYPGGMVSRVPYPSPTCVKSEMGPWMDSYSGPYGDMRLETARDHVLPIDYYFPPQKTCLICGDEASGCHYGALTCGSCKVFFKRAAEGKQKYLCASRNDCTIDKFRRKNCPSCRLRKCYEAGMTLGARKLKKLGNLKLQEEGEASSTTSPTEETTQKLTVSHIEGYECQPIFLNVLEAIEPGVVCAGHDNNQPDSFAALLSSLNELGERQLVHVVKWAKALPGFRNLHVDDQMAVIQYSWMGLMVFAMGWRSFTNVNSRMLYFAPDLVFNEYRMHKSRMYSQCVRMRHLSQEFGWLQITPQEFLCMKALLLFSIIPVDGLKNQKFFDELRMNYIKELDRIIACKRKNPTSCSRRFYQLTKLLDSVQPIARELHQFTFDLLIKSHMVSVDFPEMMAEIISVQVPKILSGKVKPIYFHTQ
Text: The co-transfection assay provides a method for identifying functional agonists and partial agonists which mimic, or antagonists which inhibit, the effect of native hormones, and quantifying their activity for responsive IR proteins. In this regard, the co-transfection assay mimics an in vivo system in the laboratory. Importantly, activity in the co-transfection assay correlates very well with known in vivo activity, such that the co-transfection assay functions as a qualitative and quantitative predictor of a tested compounds in vivo pharmacology. See, e.g., T. Berger et al. 41 J. Steroid Biochem. Molec.
CV-1 cells (African green monkey kidney fibroblasts) were cultured in the presence of Dulbecco's Modified Eagle Medium (DMEM) supplemented with 10% charcoal resin-stripped fetal bovine serum then transferred to 96-well microtiter plates one day prior to transfection.
The reporter plasmid, MTV-LUC, contains the cDNA for firefly luciferase (LUC) under control of the mouse mammary tumor virus (MTV) long terminal repeat, a conditional promoter containing an androgen response element. See e.g., Berger et al. supra. In addition, pRS-β-Gal, coding for constitutive expression of E. coli β-galactosidase (β-Gal), was included as an internal control for evaluation of transfection efficiency and compound toxicity.
Three to four replicates were used for each sample.
After 40 hours, the cells were washed with PBS, lysed with a Triton X-100-based buffer and assayed for LUC and β-Gal activities using a luminometer or spectrophotometer, respectively. For each replicate, the normalized response (NR) was calculated as:
where β-Gal rate=β-Gal•1×10^−5/β-Gal incubation time.

human AR [2] = biological target: T2, human AR; details: read-out: AR Binding Ki

SMILES	IC50 (PR) [nM]	AR Antagonist CV-1 Cells Efficacy (human AR [1]) [%]	IC50 (human AR [1]) [nM]	Ki (human AR [2]) [nM]	AR Agonist CV-1 Cells Efficacy (human AR [1]) [%]	EC50 (human AR [1]) [nM]	AR activity profile (in words) (human AR [1])	EC50 (human AR [1]; agonist mode, na = not active (efficacy < 10 and potency > 10,000)) [nM]	AR Agonist CV-1 Cells Efficacy (human AR [1]; agonist mode, percent maximal response relative to reference agonist DHT, na = not active (efficacy < 10 and potency > 10,000)) [%]
CC12CCCN1c1cc3[nH]c(=O)c(F)c(C(F)(F)F)c3cc1CC2 (racemic) [Compound 102, (R/S)-3-Fluoro-6,7,7a,11-tetrahydro-7a-methyl-4-trifluoromethyl-2-pyridono[5,6-g]pyrrolidino[1,2-a]quinoline]	398	85 ± 1	193 ± 19	11					
Cn1c(=O)c(F)c(C(F)(F)F)c2cc3c(cc21)N1CCCC1(C)CC3 (racemic) [Compound 104, (R/S)-3-Fluoro-6,7,7a,11-tetrahydro-1,7a-dimethyl-4-trifluoromethyl-2-pyridono[5,6-g]pyrrolidino[1,2-a]quinoline]	800	85 ± 2	40 ± 9	93 ± 48					
CCC1CCN(C(C)=O)c2cc3[nH]c(=O)cc(C(F)(F)F)c3cc21 (racemic) [Compound 123, (R/S)-1-Acetyl-4-ethyl-1,2,3,4-tetrahydro-6-(trifluoromethyl)-8-pyridono[5,6-g]quinoline]				87	91 ± 17	31 ± 2			
CCC1CCN([N+](=O)[O-])c2cc3[nH]c(=O)cc(C(F)(F)F)c3cc21 (racemic) [Compound 127, (R/S)-4-Ethyl-1,2,3,4-tetrahydro-1-nitro-6-(trifluoromethyl)-8-pyridono[5,6-g]quinoline]				136	56 ± 12	85 ± 36			
CC1(C)CCc2cc3c(C(F)F)c(F)c(=O)[nH]c3cc2N1 [Compound 106, 6-Difluoromethyl-7-fluoro-1,2,3,4-tetrahydro-2,2-dimethyl-8-pyridono[5,6-g]quinoline]		78 ± 3	52 ± 14	73 ± 37					
Cn1c(=O)c(F)c(C(F)(F)F)c2cc3c(cc21)NC(C)(C)CC3 [Compound 107, 7-Fluoro-1,2,3,4-tetrahydro-2,2,9-trimethyl-6-trifluoromethyl-8-pyridono[5,6-g]quinoline]		83 ± 3	38 ± 10	110 ± 42					
CN1c2cc3c(cc2CCC1(C)C)c(C(F)(F)F)c(F)c(=O)n3C [Compound 109, 7-Fluoro-1,2,3,4-tetrahydro-1,2,2,9-tetramethyl-6-trifluoromethyl-8-pyridono[5,6-g]quinoline]		77 ± 4	15 ± 2	18 ± 7	13 ± 8	36 ± 45	highly selective AR antagonists		
CC1=CC(C)(C)Nc2cc3[nH]c(=O)c(F)c(C(F)(F)F)c3cc21 [Compound 111, 7-Fluoro-1,2-dihydro-2,2,4-trimethyl-6-trifluoromethyl-8-pyridono[5,6-g]quinoline]		53 ± 5	43 ± 8	12	16 ± 2	227 ± 59	mixed AR agonists/antagonists		
CC1CC(C)(C)Nc2cc3[nH]c(=O)c(F)c(C(F)(F)F)c3cc21 (centres unmarked) [Compound 112, 7-Fluoro-1,2,3,4-tetrahydro-2,2,4-trimethyl-6-trifluoromethyl-8-pyridono[5,6-g]quinoline]		42 ± 10	20 ± 1	61 ± 16	21 ± 6	26 ± 15	highly selective AR antagonists		
CC1CC(C)(C)n2oc(=O)c3c4[nH]c(=O)cc(C(F)(F)F)c4cc1c32 (centres unmarked) [Compound 113, 1,10-[1,3-dihydro-3-oxo-(2,1-isoxazolyl)]-1,2,3,4-tetrahydro-2,2,4,10-tetramethyl-6-trifluoromethyl-8-pyridono[5,6-g]quinoline]		48		10			mixed AR agonists/antagonists	245	31
Cc1c2c(cc3c(C(F)(F)F)c(F)c(=O)[nH]c13)C(C)CC(C)(C)N2 (centres unmarked) [Compound 115, 7-Fluoro-1,2,3,4-tetrahydro-2,2,4,10-tetramethyl-6-trifluoromethyl-8-pyridono[5,6-g]quinoline]		87 ± 1		107					
CC1(C)CCc2cc3c(C(F)(F)F)cc(=O)[nH]c3cc2N1O [Compound 118, 1,2,3,4-Tetrahydro-1-hydroxy-2,2-dimethyl-6-trifluoromethyl-8-pyridono[5,6-g]quinoline]		70 ± 2	482 ± 179	86 ± 29					
Cn1c(=O)cc(C(F)(F)F)c2cc3c(cc21)N(O)C(C)(C)CC3 [Compound 119, 1,2,3,4-Tetrahydro-1-hydroxy-2,2,9-trimethyl-6-trifluoromethyl-8-pyridono[5,6-g]quinoline]		40 ± 12	1570 ± 1050	74 ± 29					
CCC1(CC)CCc2cc3c(C(F)(F)F)c(F)c(=O)[nH]c3cc2N1 [Compound 120, 2,2-Diethyl-7-fluoro-1,2,3,4-tetrahydro-6-trifluoromethyl-8-pyridono[5,6-g]quinoline]		61 ± 5	17 ± 2	156 ± 24	18 ± 3	171 ± 95			
